Reference: patent US11787810B2, “Diacylglyceride O-acyltransferase 2 inhibitors” (Merck Sharp & Dohme Corp., priority 2020, dated 2023)
Where two headings read alike, the source gives them in different places.

Biological target: human DGAT2 (hDGAT2) (Homo sapiens (Human), UniProt Q96PD7)
Experiment: DGAT2 enzymatic activity assay (13C18-triolein formation, LC/MS/MS)
Assay type: biochemical
Description: Sf-9 insect cells were maintained in Grace's insect cell culture medium with 10% heated-inactivated fetal bovine serum, 1% Pluronic F-68 and 0.14 μg/ml Kanamycine sulfate at 27° C. in a shaker incubator. After infection with untagged baculovirus expressing human DGAT2 (hDGAT2) at multiplicity of infection (MOI) 3 for 48 hours, cells were harvested. Cell pellets were suspended in buffer containing 10 mM Tris-HCl pH 7.5, 1 mM EDTA, 250 mM sucrose and Complete Protease Inhibitor Cocktail (Sigma Aldrich), and sonicated on ice. Cell debris were removed by centrifugation at 2000×g for 15 minutes. Membrane fractions were isolated by ultracentrifugation (100,000×g), resuspended in the same buffer, and frozen (−80° C.) for later use. The protein concentration was determined with the Pierce™ BCA Protein Assay Kit (Thermo Fisher Scientific). Expression of protein levels was analyzed by immunoblotting with rabbit anti-DGAT2 antibody (Abcam, ab102831) and donkey anti-rabbit IgG H&L Alexa Fluor® 647 (Abcam, ab150075) followed by detection using Typhoon FLA9000 (GE Healthcare).
LC/MS/MS analyses were performed using Thermal Fisher's LX4-TSQ Vantage system. This system consists of an Agilent binary high-performance liquid chromatography (HPLC) pumps and a TSQ Vantage triple quadrupole MS/MS instrument. For each sample, 2 μL samples from the top organic layer of in-plate liquid-liquid extraction were injected onto a Thermo Betabasic C4 column (2.1 mm×20 mm, 5 μm particle size). The samples were then eluted using the following conditions; mobile phase: Isopropanol:acetonitrile/10 mM ammonium formate=50/35/15 (v/v/v), flow rate: 0.8 mL/min, temperature: 25° C. Data was acquired in positive mode using a heated electrospray ionization (HESI) interface. The operational parameters for the TSQ Vantage MS/MS instrument were a spray voltage of 3000 V, capillary temperature of 280° C., vaporizer temperature 400° C., sheath gas 45 arbitrary unit, Aux gas 10 arbitrary units, S-lens 165 and collision gas 1.0 mTorr. […] (SRM) chromatograms of ^13C18-triolein (Q1: 920.8>Q3:621.3) and internal standard ^13C21-triolein (Q1: 923.8>Q3:617.3) were collected for 33 sec. The peak area was integrated by Xcalibur Quan software. The ratio between the ^13C18triolein generated in the reaction and spiked in internal standard ^13C21-triolein was used to generate percentage inhibition and IC50 values. Compound percentage inhibition was calculated by the following formula: Inhibition %=1-[(compound response−low control)/(high control−low control)]×100%. Potent compounds were titrated and IC50 were calculated by 4 parameter sigmoidal curve fitting formula.
DGAT2 activity was determined by measuring the amount of enzymatic product ^13C18-triolein (^13C-1,2,3-Tri(cis-9-octadecenoyl)glycerol) using the membrane prep mentioned above. The assay was carried out in ABgene 384-well assay plates in a final volume of 25 μL at rt. The assay mixture contained the following: assay buffer (100 mM Tris·Cl, pH 7.0, 20 mM MgCl2, 5% ethanol), 25 μM of diolein, 5 μM of ^13C oleoyl-CoA and 8 ng/μL of DGAT2 membrane.

[1] = table head without 'Human', same membrane assay, read-out: DGAT2 IC50
[2] = hDGAT2 Sf-9 membrane prep, 25 μM diolein, 5 μM 13C oleoyl-CoA, read-out: Human DGAT2 IC50

Chain of human DGAT2 (hDGAT2) (Q96PD7 whole entry): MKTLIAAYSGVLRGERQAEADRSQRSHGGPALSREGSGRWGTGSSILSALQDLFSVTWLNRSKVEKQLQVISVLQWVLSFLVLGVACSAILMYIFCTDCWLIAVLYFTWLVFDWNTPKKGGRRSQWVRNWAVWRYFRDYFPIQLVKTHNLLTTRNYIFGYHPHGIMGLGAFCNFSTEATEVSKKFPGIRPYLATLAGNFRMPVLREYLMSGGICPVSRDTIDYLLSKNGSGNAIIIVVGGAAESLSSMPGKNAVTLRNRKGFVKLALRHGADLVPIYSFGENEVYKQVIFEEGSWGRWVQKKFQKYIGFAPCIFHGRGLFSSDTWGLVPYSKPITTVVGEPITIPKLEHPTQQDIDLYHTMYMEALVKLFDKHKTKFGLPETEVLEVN

SMILES	IC50 [1]	IC50 [2]
CC(n1nc(-c2cc(OC(F)F)ccc2F)c2ncc(C(=O)NC3(C)CS(=O)(=O)C3)cc21)C(C)(C)O (single isomer, unassigned) [Example 131a, 3-(5-(difluoromethoxy)-2-fluorophenyl)-1-(3-hydroxy-3-methylbutan-2-yl)-N-(3-methyl-1,1-dioxidothietan-3-yl)-1H-pyrazolo[4,3-b]pyridine-6-carboxamide]	11 nM	–
CC(n1nc(-c2cc(OC(F)(F)F)ccc2F)c2ncc(C(=O)NC3(C)CS(=O)(=O)C3)cc21)C(C)(C)O (single isomer, unassigned) [Example 132a, 3-(2-fluoro-5-(trifluoromethoxy)phenyl)-1-(3-hydroxy-3-methylbutan-2-yl)-N-(3-methyl-1,1-dioxidothietan-3-yl)-1H-pyrazolo[4,3-b]pyridine-6-carboxamide]	231 nM	–
CC(n1nc(-c2cc(OC(F)(F)F)ccc2F)c2ncc(C(=O)NC3(C)CS(=O)(=O)C3)cc21)C(C)(C)O (single isomer, unassigned) [Example 132b, 3-(2-fluoro-5-(trifluoromethoxy)phenyl)-1-(3-hydroxy-3-methylbutan-2-yl)-N-(3-methyl-1,1-dioxidothietan-3-yl)-1H-pyrazolo[4,3-b]pyridine-6-carboxamide]	215 nM	–
CC(n1nc(-c2cc(OC(F)F)ncc2F)c2cnc(C(=O)NC3(C)CS(=O)(=O)C3)cc21)C(C)(C)O (single isomer, unassigned) [Example 133a, 3-(2-(difluoromethoxy)-5-fluoropyridin-4-yl)-1-(3-hydroxy-3-methylbutan-2-yl)-N-(3-methyl-1,1-dioxidothietan-3-yl)-1H-pyrazolo[4,3-c]pyridine-6-carboxamide]	862 nM	–
CC(n1nc(-c2cc(OC(F)F)ncc2F)c2cnc(C(=O)NC3(C)CS(=O)(=O)C3)cc21)C(C)(C)O (single isomer, unassigned) [Example 133b, 3-(2-(difluoromethoxy)-5-fluoropyridin-4-yl)-1-(3-hydroxy-3-methylbutan-2-yl)-N-(3-methyl-1,1-dioxidothietan-3-yl)-1H-pyrazolo[4,3-c]pyridine-6-carboxamide]	15 nM	–
C[C@]1(NC(=O)c2cnc3c(-c4cccc(OC(F)F)c4)nn(-c4ccc(F)cc4)c3c2)CCS(=O)(=O)C1 [Example 1, (S)-3-(3-(difluoromethoxy)phenyl)-1-(4-fluorophenyl)-N-(3-methyl-1,1-dioxidotetrahydrothiophen-3-yl)-1H-pyrazolo[4,3-b]pyridine-6-carboxamide]	–	0.8 nM
O=C(N[C@@H]1CCC[C@H]1N1CCOCC1)c1cnc2c(-c3cccc(OC(F)F)c3)cn(-c3ncc(F)cn3)c2c1 [Example 7, 3-(3-(difluoromethoxy)phenyl)-1-(5-fluoropyrimidin-2-yl)-N-((1R,2R)-2-morpholinocyclopentyl)-1H-pyrrolo[3,2-b]pyridine-6-carboxamide]	–	45 nM
C[C@]1(NC(=O)c2cnc3c(-c4cccc(OC(F)F)c4)cn(-c4ccc(F)cc4)c3c2)CCS(=O)(=O)C1 [Example 9, (S)-3-(3-(difluoromethoxy)phenyl)-1-(4-fluorophenyl)-N-(3-methyl-1,1-dioxidotetrahydrothiophen-3-yl)-1H-pyrrolo[3,2-b]pyridine-6-carboxamide]	–	6.8 nM
N[C@H]1CCC[C@H]1NC(=O)c1cnc2c(-c3cccc(OC(F)F)c3)cn(-c3ncc(F)cn3)c2c1 [Example 20, N-((1R,2S)-2-aminocyclopentyl)-3-(3-(difluoromethoxy)phenyl)-1-(5-fluoropyrimidin-2-yl)-1H-pyrrolo[3,2-b]pyridine-6-carboxamide]	–	189 nM
C[C@]1(NC(=O)c2cnc3c(-c4cccc(OC(F)F)c4)cn(-c4ccc(F)cc4)c3n2)CCS(=O)(=O)C1 [Example 24, (S)-7-(3-(difluoromethoxy)phenyl)-5-(4-fluorophenyl)-N-(3-methyl-1,1-dioxidotetrahydrothiophen-3-yl)-5H-pyrrolo[2,3-b]pyrazine-3-carboxamide]	–	50 nM
CC(C)n1nc(-c2cccc(OC(F)F)c2)c2ncc(C(=O)NC(C)(C)CO)cc21 [Example 42, 3-(3-(difluoromethoxy)phenyl)-N-(1-hydroxy-2-methylpropan-2-yl)-1-isopropyl-1H-pyrazolo[4,3-b]pyridine-6-carboxamide]	–	38 nM

Further lines, results first:

IC50 [1]	IC50 [2]	SMILES
80 nM	–	CC(n1nc(-c2cccc(OC(F)F)c2)c2ncc(C(=O)NC3(C)CS(=O)(=O)C3)cc21)C(C)(C)O (single isomer, unassigned) [Example 130b, 3-(3-(difluoromethoxy)phenyl)-1-(3-hydroxy-3-methylbutan-2-yl)-N-(3-methyl-1,1-dioxidothietan-3-yl)-1H-pyrazolo[4,3-b]pyridine-6-carboxamide]
110 nM	–	CC(n1nc(-c2cc(OC(F)F)ccc2F)c2ncc(C(=O)NC3(C)CS(=O)(=O)C3)cc21)C(C)(C)O (single isomer, unassigned) [Example 131b, 3-(5-(difluoromethoxy)-2-fluorophenyl)-1-(3-hydroxy-3-methylbutan-2-yl)-N-(3-methyl-1,1-dioxidothietan-3-yl)-1H-pyrazolo[4,3-b]pyridine-6-carboxamide]
–	4.7 nM	CC(C)n1nc(-c2cccc(OC(F)F)c2)c2ncc(C(=O)NC3(C)CS(=O)(=O)C3)cc21 [Example 25, 3-[3-(difluoromethoxy)phenyl]-1-isopropyl-N-(3-methyl-1,1-dioxidothietan-3-yl)-1H-pyrazolo[4,3-b]pyridine-6-carboxamide]
–	50 nM	CC(C)n1cc(-c2cccc(OC(F)F)c2)c2ncc(C(=O)NC3(C)CS(=O)(=O)C3)cc21 [Example 37, 3-(3-(difluoromethoxy)phenyl)-1-isopropyl-N-(3-methyl-1,1-dioxidothietan-3-yl)-1H-pyrrolo[3,2-b]pyridine-6-carboxamide]
–	27 nM	CCOc1cc(-c2nn(C(C)C)c3cc(C(=O)NC4(C)CS(=O)(=O)C4)cnc23)c(F)cn1 [Example 126, 3-(2-ethoxy-5-fluoropyridin-4-yl)-1-isopropyl-N-(3-methyl-1,1-dioxidothietan-3-yl)-1H-pyrazolo[4,3-b]pyridine-6-carboxamide]
–	298 nM	CC(C)n1nc(-c2cccc(C3(O)CC3)c2)c2ncc(C(=O)NC3(C)CS(=O)(=O)C3)cc21 [Example 127, 3-(3-(1-Hydroxycyclopropyl)phenyl)-1-isopropyl-N-(3-methyl-1,1-dioxidothietan-3-yl)-1H-pyrazolo[4,3-b]pyridine-6-carboxamide]
–	5450 nM	COC1(c2cccc(-c3nn(C(C)C)c4cc(C(=O)NC5(C)CS(=O)(=O)C5)cnc34)c2)CC1 [Example 128, 1-isopropyl-3-(3-(1-methoxycyclopropyl)phenyl)-N-(3-methyl-1,1-dioxidothietan-3-yl)-1H-pyrazolo[4,3-b]pyridine-6-carboxamide]
–	97 nM	CC1(NC(=O)c2cnc3c(-c4cccc(OC(F)F)c4)nn(C(C)(C)C(C)(C)O)c3c2)CS(=O)(=O)C1 [Example 129, 3-(3-(difluoromethoxy)phenyl)-1-(3-hydroxy-2,3-dimethylbutan-2-yl)-N-(3-methyl-1,1-dioxidothietan-3-yl)-1H-pyrazolo[4,3-b]pyridine-6-carboxamide]
–	33 nM	CN1CCC(n2nc(-c3cccc(OC(F)F)c3)c3ncc(C(=O)NC4(C)CS(=O)(=O)C4)cc32)CC1 [Example 134, 3-(3-(Difluoromethoxy)phenyl)-N-(3-methyl-1,1-dioxidothietan-3-yl)-1-(1-methylpiperidin-4-yl)-1H-pyrazolo[4,3-b]pyridine-6-carboxamide]
